Measurements taken from paper PMC7606612, “Identification of HMGA2 inhibitors by AlphaScreen-based ultra-high-throughput screening assays” (Scientific Reports, 2020).

Columns and labels:
[1] = molecular target: T1, bromodomain-containing protein 4 (BRD4) (Homo sapiens, UniProt O60885); assay: BRD4 AlphaScreen counterscreen assay (H4 peptide binding to BRD4); settings: counter screen, Fig. 3c
T1 construct: His-tagged BRD4-BD1 was purchased from BPS Bioscience (#31042); purchased BPS Bioscience 31042
Experimental: (§1) In this study, we also developed a LANCE time-resolved fluorescence energy transfer (TR-FRET) assay as a secondary assay for our screening. The His-tagged HMGA2 and biotinylated oligomer FL814 were linked to Europium-labeled anti-6 × His antibody and APC-labeled streptavidin, respectively. A series of DNA binding studies were performed to determine the optimal conditions for the secondary Assay (Fig. S2). After these experiments, 12.5 nM of FL814 and 62.5 nM of HMGA2 were chosen for the assay, which is the same for the primary assay. The assay tolerated up to 0.25% DMSO without any significant change in signal (Fig. S2c). For a counterscreen assay to exclude those compounds that nonspecifically bind to the protein surface, an AlphaScreen assay of H4 peptide binding to bromodomain-containing protein 4 (BRD4) was adopted (Fig. S2e). Since we are looking for compounds with anti-metastasis or anti-obesity activities, compounds with high levels of cytotoxicity are undesirable. […]
Using a Labcyte Echo 555 acoustic dispenser 5 nL of DMSO were added to columns 1–4 and 45–48 of a white 1536 well plate, while 5 nL of 2 mM compounds in DMSO were added to columns 5–44. […] After an overnight incubation at room temperature the plates were read on a Perkin Elmer Envision multimode plate reader in AlphaScreen mode.

[2] = system: human epidermoid carcinoma cell line, A431; assay: Cytotoxicity / cell viability assay (ATPlite); type: cell-based; settings: human A-431 cells, 48 h
Experimental: as §1
A-431 cells were grown in media (DMEM + 10% FBS + 1 × Penicillin/Streptomycin + 2 mM L-glutamine) at 37 °C in a humidified incubator with 5% CO2 to 70% confluency. […] After 10 min the plates were read using a Perkin Elmer Viewlux multimode plate reader in luminescence mode.

HMGA2 = molecular target: T2, HMGA2 (Mus musculus, UniProt P52927); assay: Isothermal titration calorimetry (ITC), titration into HMGA2; type: binding, mammalian; settings: for HMGA2 Binding site: number of sites
T2 construct: made in house
T2 sequence (P52927 2-108 limits assumed): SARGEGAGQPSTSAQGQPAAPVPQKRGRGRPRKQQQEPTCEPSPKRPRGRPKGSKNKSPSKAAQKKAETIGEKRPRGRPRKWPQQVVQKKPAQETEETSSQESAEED
Experimental: ITC experiments were conducted using a VP-ITC titration calorimeter (MicroCal, Inc., Northampton, MA) interfaced to a PC. Origin 7.0, supplied by the manufacturer was used for data acquisition. […] The heat liberated or absorbed is observed as a peak corresponding to the power required keeping the sample and reference cells at identical temperatures. The peak produced during the injection is converted to heat output by integration and corrected for cell volume and sample concentration. […] The net enthalpy for the titration reaction was determined by subtraction of the component heats of dilution.

BTSC#30p = assay: Growth curves (CellTiter), BTSC#30p; type: cell-based; settings: up to 200 μM
Experimental: BTSC#83 and BTSC#30p and their culture conditions have been described. For growth curves, suspension cultures were mechanically disaggregated and filtered through 37 µm filters (StemCell Technologies, Vancouver, Canada) in order to obtain bona fide single-cell suspension. […] Cell growth was assayed at the indicated time using the CellTiter Assay System (Promega). The growth conditions of 8505c anaplastic thyroid carcinoma cells and mouse Embryonic Fibroblasts (MEFs) knock-out for HMGA1, HMGA2, and HMGA1/A2 double mutant have been described previously[42],[64]. P values were calculated by using two-way ANOVA followed by Sidak’s multiple comparison test.

BTSC#83 = assay: Western blotting and qRT-PCR expression analysis, BTSC#83; type: cell-based
Experimental: The single-cell suspension was obtained by mechanical disaggregation of the spheres and total proteins were extracted 48 h later, as previously described. After separation by SDS–polyacrylamide gel electrophoresis, proteins were blotted on nitrocellulose membranes (GE Healthcare Europe Gmb) and hybridized with the following antibodies: anti-HMGA1, anti-HMGA2 (Genetex) or affinity-purified anti-HMGA2, anti-α-actin (SantaCruz Biotechnologies). The single-cell suspension was obtained by mechanical disaggregation of the spheres and RNA was extracted 48 h later, by using Direct-zol RNA MiniPrep (Zymo Research). One μg of RNA was retrotranscribed, by using QuantiTect® Reverse Transcription Kit (Qiagen) and qRT-PCR was performed as described. The 2^–ΔΔCt formula was used to calculate the differential gene expression.

**Q.** For Cc1ccc(C(=O)Nc2ccc(S(=O)(=O)O)c3cc(S(=O)(=O)O)cc(S(=O)(=O)O)c23)cc1NC(=O)c1cccc(NC(=O)Nc2cccc(C(=O)Nc3cc(C(=O)Nc4ccc(S(=O)(=O)O)c5cc(S(=O)(=O)O)cc(S(=O)(=O)O)c45)ccc3C)c2)c1 [suramin], which “inhibition of H4 peptide binding to BRD4” value [1] is on record?
**A.** did not inhibit H4 peptide binding to BRD4

**Q.** What about the cytotoxicity [2] of the same molecule?
**A.** not cytotoxic

**Q.** And the “–TΔS” value (HMGA2; first type of binding sites)?
**A.** 5.56 kcal/mol

**Q.** What about the “HMGA2 Binding site” value (HMGA2; first type) of the same molecule?
**A.** three

**Q.** What about the “HMGA2 Binding site” value (HMGA2; first type, listed as Suramin) of the same molecule?
**A.** 2.81

**Q.** And the “HMGA2 Binding site” value (HMGA2; second type)?
**A.** two

**Q.** And the “HMGA2 Binding site” value (HMGA2; second type, listed as Suramin)?
**A.** 2

**Q.** What about the “− TΔS” value (HMGA2; second type of binding sites) of the same molecule?
**A.** 0.24 kcal/mol

**Q.** What about the Kd (HMGA2; second type of binding sites, read-out: HMGA2 Ka (M^−1) (converted)) of the same molecule?
**A.** 23 µM

**Q.** What about the “total of suramin binding sites on HMGA2” value (HMGA2; two types, confirmed by mass spectrometry) of the same molecule?
**A.** five

**Q.** What about the cell growth (BTSC#30p) of the same molecule?
**A.** did not significantly affect the cell growth

**Q.** What about the “expression of HMGA1” value (BTSC#83; Western blotting and qRT-PCR) of the same molecule?
**A.** slightly reduced

**Q.** What about the “expression of HMGA2” value (BTSC#83; Western blotting and qRT-PCR) of the same molecule?
**A.** slightly reduced

**Q.** And the “expression of SNAIL” value (BTSC#83; qRT-PCR, 100 µM for 48 h)?
**A.** significantly reduced
